Data: patent publication US20250304623A1, “PEPTIDES FOR INTRACELLULAR DELIVERY” (UNIVERSIDADE DE SANTIAGO DE COMPOSTELA, priority 2022, published 2025)
*: point of attachment. NHNH2 = NN*

Experiments:
Assay type in all cases: cell-based
A549 cells = assay: RLuc pDNA delivery, robotic library screening, A549
Method: (§1) Cells were seeded in a 96 well plate the day before the experiment at a concentration of 60,000 cell/mL (100 μL/w) in DMEM+10% FBS+1% Gln-Abt. For robotic library screening, the delivery of pDNA encoding for the expression of Renilla luciferase gene (RLuc, pRL-CMV (Promega, #E2261)) in six different cell lines was performed. Amphihilic molecule stock solutions in DMSO were diluted with DMEM and freshly mixed with pDNA stock solutions in DMEM prior to transfection experiments, to afford several complexes at different amphiphile concentration (2-10 μM) while maintaining a constant final pDNA concentration of 2 ng/μL. The mixture was shaken for 30 min at room temperature before the addition to the cells. The cell medium was aspirated, and cells were washed twice with PBS. Finally, 50 μL of the complex's solution were added to the cells and incubated for 4 h. After the incubation, the medium was replaced by 100 μL of fresh DMEM supplemented with 10% FBS. 72 hours after transfection the DMEM was removed, cells were washed once with HBSS and 90 μL of HBSS were added to each well. Cells were incubated at 37° C. for 30 minutes. Then basal luminescence levels were read in a plate reader. Immediately, 10 μL of coelenterazine h in HBSS were added to each well (5 μM final concentration) and cells were incubated at 37° C. for 10 minutes. Finally, the total luminescence measurement of the plates was performed. Amphiphile transfection efficiency was compared and normalized to Lipofectamine® 2000 efficiency (value of 1 in Tables 1-5 and 7; bold numbers). All experiments were done in triplicate.
(§2) Tables 1-7: RLuc (pDNA) or EGFP (mRNA) expression levels were normalized to Lipofectamine reagents (value=1) and expressed as fold-times signal increase. In the case of siRNA, the siRNA treated cells fluorescence was compared with siMOCK control fluorescence, while Cas9-RNP mediated knockout was measured against the fluorescence of untreated cells. In both siRNA and Cas9-RNP, values are expressed as % fluorescence reduction. Amphiphile concentration was 5 μM in all cases. All experiments were performed in triplicate.
(§3) Tables 8-13 show the mean (triplicates) luminescent intensity (RLU) measured after the transfection of RLuc pDNA by different amphiphiles at different concentrations in a variety of cell lines. Background luminescence values, accounted by untransfected control cells, were subtracted for processing.

ARPE19 cells = assay: RLuc pDNA delivery, robotic library screening, ARPE19
HCT116 cells = assay: RLuc pDNA delivery, robotic library screening, HCT116
Hek293 cells = assay: RLuc pDNA delivery, robotic library screening, Hek293
Hela cells = assay: RLuc pDNA delivery, robotic library screening, HeLa; settings: Hela
Method: as §1, with “Amphihilic molecule stock solutions in DMSO were diluted with DMEM and freshly mixed with pDNA stock solutions in DMEM prior to transfection experiments, to afford several complexes at different amphiphile concentration (2-10 μM) while maintaining a constant final pDNA concentration of 2 ng/μL.” left out
as §2, §3

HepG2 cells [1] = assay: RLuc pDNA delivery, robotic library screening, HepG2
Method: as §1, §2, §3

HepG2 cells [2] = assay: EGFP mRNA delivery, robotic library screening, HepG2; settings: HepG2 cells
Method: Cells were seeded in a 96 well plate the day before the experiment at a concentration of 50,000 cell/mL (100 μL/w) in DMEM+10% FBS+1% Gln-Abt. For robotic library screening, the delivery of EGFP-mRNA (from TriLink, fully substituted with 5-methoxyuridine, capped and polyadenylated; TriLink, CleanCap® EGFP mRNA (5moU), ref. L-7201) in six different cell lines was performed. Amphiphilic molecule stock solutions were prepared in DMSO as described above and diluted in DMEM to afford a range of concentrations. The solutions of EGFP-mRNA/amphiphilic molecule complexes were freshly prepared prior to the transfection experiments. 35 μL of the corresponding amphiphile were added to 10 μL of a solution of EGFP-mRNA at 10 ng/μL in DMEM. The mixture was shaken for 30 min at room temperature before the addition to the cells. The cell medium was aspirated, and cells were washed with PBS twice. […] After the incubation, the medium was replaced by 100 μL of fresh DMEM supplemented with 10% FBS. The total EGFP fluorescence was quantified after 72 h in a well plate reader. Amphiphile transfection efficiency was compared and normalized to Lipofectamine® MessengerMax efficiency (value of 1 in Tables 1-5 and 7; double underlined numbers). All experiments were done in triplicate.
as §2
Tables 14-19 show the mean (triplicates) fluorescence intensity measured after the transfection of EGFP mRNA by different amphiphiles at different concentrations in a variety of cell lines. Background fluorescence values, accounted by untreated control cells, were subtracted for processing.

For Ac-RRK*K*RK*LRRLLRL-NH2 [13(3b)], the “mean luminescent intensity (RLuc pDNA)” value (A549 cells; Dodecanal, 15 μM) was 2061 RLU, the “mean luminescent intensity (RLuc pDNA)” value (A549 cells; Oleyl, 5 μM) was 9759 RLU and the “mean luminescent intensity (RLuc pDNA)” value (A549 cells; Oleyl, 10 μM) was 1493 RLU. The “mean luminescent intensity (RLuc pDNA)” value (A549 cells; Oleyl, 15 μM) was 1440 RLU, the “mean luminescent intensity (RLuc pDNA)” value (ARPE19 cells; Dodecanal, 5 μM) was 4597 RLU and the “mean luminescent intensity (RLuc pDNA)” value (ARPE19 cells; Myristoleyl, 5 μM) was 2571 RLU. The “mean luminescent intensity (RLuc pDNA)” value (ARPE19 cells; Myristoleyl, 10 μM) was 86 RLU, the “mean luminescent intensity (RLuc pDNA)” value (ARPE19 cells; Myristoleyl, 15 μM) was 64 RLU and the “mean luminescent intensity (RLuc pDNA)” value (ARPE19 cells; Petroselinyl, 5 μM) was 5548 RLU. For the same substance, the “mean luminescent intensity (RLuc pDNA)” value (HCT116 cells; Dodecanal, 5 μM) was 101412 RLU, the “mean luminescent intensity (RLuc pDNA)” value (HCT116 cells; Dodecanal, 10 μM) was 17841 RLU and the “mean luminescent intensity (RLuc pDNA)” value (HCT116 cells; Dodecanal, 15 μM) was 3435 RLU. The “mean luminescent intensity (RLuc pDNA)” value (HCT116 cells; Myristoleyl, 5 μM) was 34451 RLU, the “mean luminescent intensity (RLuc pDNA)” value (HCT116 cells; Myristoleyl, 15 μM) was 504 RLU and the “mean luminescent intensity (RLuc pDNA)” value (HCT116 cells; Oleyl, 5 μM) was 18257 RLU. The “mean luminescent intensity (RLuc pDNA)” value (HCT116 cells; Palmitoleyl, 5 μM) was 65487 RLU, the “mean luminescent intensity (RLuc pDNA)” value (HCT116 cells; Petroselinyl, 5 μM) was 11255 RLU and the “mean luminescent intensity (RLuc pDNA)” value (Hek293 cells; Dodecanal, 5 μM) was 233706 RLU. For the same substance, the “mean luminescent intensity (RLuc pDNA)” value (Hek293 cells; Palmitoleyl, 5 μM) was 97665 RLU, the “mean luminescent intensity (RLuc pDNA)” value (Hek293 cells; Palmitoleyl, 10 μM) was 33115 RLU and the “mean luminescent intensity (RLuc pDNA)” value (Hek293 cells; Petroselinyl, 5 μM) was 100988 RLU. For the same substance, the “mean luminescent intensity (RLuc pDNA)” value (Hek293 cells; Petroselinyl, 10 μM) was 48097 RLU, the “mean luminescent intensity (RLuc pDNA)” value (Hela cells; Myristoleyl, 5 μM) was 893 RLU and the “mean luminescent intensity (RLuc pDNA)” value (Hela cells; Myristoleyl, 10 μM) was 446 RLU. For the same substance, the “mean luminescent intensity (RLuc pDNA)” value (Hela cells; Myristoleyl, 15 μM) was 338 RLU, the “mean luminescent intensity (RLuc pDNA)” value (Hela cells; Petroselinyl, 5 μM) was 590 RLU and the “mean luminescent intensity (RLuc pDNA)” value (HepG2 cells [1]; Oleyl, 5 μM) was 128030 RLU. The “mean luminescent intensity (RLuc pDNA)” value (HepG2 cells [1]; Oleyl, 10 μM) was 4005 RLU, the “mean luminescent intensity (RLuc pDNA)” value (HepG2 cells [1]; Oleyl, 15 μM) was −1204 RLU and the “mean fluorescence intensity after transfection of EGFP mRNA” value (“mean fluorescence intensity” below) (HepG2 cells [2]; Palmitoleyl, 5 μM) was 1176. The “mean fluorescence intensity” value (HepG2 cells [2]; Palmitoleyl, 10 μM) was −335, the “mean fluorescence intensity” value (HepG2 cells [2]; Palmitoleyl, 15 μM) was −37 and the “mean fluorescence intensity” value (HepG2 cells [2]; Petroselinyl, 10 μM) was 189.
For “Ac-RRLK*RK*LRRLK*RL-NH2 (Ac-RRLK(NHNH2)RK(NHNH2)LRRLK(NHNH2)RL-NH2; not fully specified; printed as Ac-RRLK*RK*LRRLK*RL-NH2; also: K*4,K*6,K*11: native or modified lysine (ε-amide to a linker)) [13(2 + 1)]”, the “mean luminescent intensity (RLuc pDNA)” value (A549 cells; Dodecanal, 5 μM) was 24508 RLU, the “mean luminescent intensity (RLuc pDNA)” value (A549 cells; Dodecanal, 10 μM) was 1332 RLU and the “mean luminescent intensity (RLuc pDNA)” value (A549 cells; Myristoleyl, 5 μM) was 11594 RLU. The “mean luminescent intensity (RLuc pDNA)” value (A549 cells; Myristoleyl, 10 μM) was 2240 RLU, the “mean luminescent intensity (RLuc pDNA)” value (A549 cells; Oleyl, 5 μM) was 3288 RLU and the “mean luminescent intensity (RLuc pDNA)” value (A549 cells; Palmitoleyl, 5 μM) was 22640 RLU. For the same substance, the “mean luminescent intensity (RLuc pDNA)” value (A549 cells; Palmitoleyl, 10 μM) was 4550 RLU, the “mean luminescent intensity (RLuc pDNA)” value (A549 cells; Petroselinyl, 5 μM) was 19295 RLU and the “mean luminescent intensity (RLuc pDNA)” value (A549 cells; Petroselinyl, 15 μM) was 2435 RLU. For the same substance, the “mean luminescent intensity (RLuc pDNA)” value (ARPE19 cells; Dodecanal, 5 μM) was 10116 RLU, the “mean luminescent intensity (RLuc pDNA)” value (ARPE19 cells; Myristoleyl, 5 μM) was 2549 RLU and the “mean luminescent intensity (RLuc pDNA)” value (ARPE19 cells; Myristoleyl, 10 μM) was −28 RLU. The “mean luminescent intensity (RLuc pDNA)” value (ARPE19 cells; Myristoleyl, 15 μM) was −36 RLU, the “mean luminescent intensity (RLuc pDNA)” value (ARPE19 cells; Palmitoleyl, 5 μM) was 5094 RLU and the “mean luminescent intensity (RLuc pDNA)” value (ARPE19 cells; Petroselinyl, 5 μM) was 4118 RLU. For the same substance, the “mean luminescent intensity (RLuc pDNA)” value (HCT116 cells; Dodecanal, 5 μM) was 132238 RLU, the “mean luminescent intensity (RLuc pDNA)” value (HCT116 cells; Dodecanal, 10 μM) was 6721 RLU and the “mean luminescent intensity (RLuc pDNA)” value (HCT116 cells; Dodecanal, 15 μM) was 2207 RLU. The “mean luminescent intensity (RLuc pDNA)” value (HCT116 cells; Myristoleyl, 5 μM) was 70015 RLU, the “mean luminescent intensity (RLuc pDNA)” value (HCT116 cells; Myristoleyl, 15 μM) was 1114 RLU and the “mean luminescent intensity (RLuc pDNA)” value (HCT116 cells; Palmitoleyl, 5 μM) was 105588 RLU. For the same substance, the “mean luminescent intensity (RLuc pDNA)” value (HCT116 cells; Petroselinyl, 5 μM) was 70216 RLU, the “mean luminescent intensity (RLuc pDNA)” value (Hek293 cells; Dodecanal, 5 μM) was 269506 RLU and the “mean luminescent intensity (RLuc pDNA)” value (Hek293 cells; Palmitoleyl, 10 μM) was 59470 RLU. The “mean luminescent intensity (RLuc pDNA)” value (Hek293 cells; Petroselinyl, 5 μM) was 78739 RLU, the “mean luminescent intensity (RLuc pDNA)” value (Hek293 cells; Petroselinyl, 10 μM) was 31561 RLU and the “mean luminescent intensity (RLuc pDNA)” value (Hela cells; Myristoleyl, 5 μM) was 564 RLU. The “mean luminescent intensity (RLuc pDNA)” value (Hela cells; Myristoleyl, 10 μM) was 379 RLU, the “mean luminescent intensity (RLuc pDNA)” value (Hela cells; Myristoleyl, 15 μM) was 452 RLU and the “mean luminescent intensity (RLuc pDNA)” value (Hela cells; Palmitoleyl, 5 μM) was 1206 RLU. For the same substance, the “mean luminescent intensity (RLuc pDNA)” value (HepG2 cells [1]; Dodecanal, 5 μM) was 322366 RLU, the “mean luminescent intensity (RLuc pDNA)” value (HepG2 cells [1]; Dodecanal, 10 μM) was 17040 RLU and the “mean luminescent intensity (RLuc pDNA)” value (HepG2 cells [1]; Dodecanal, 15 μM) was 2698 RLU. For the same substance, the “mean luminescent intensity (RLuc pDNA)” value (HepG2 cells [1]; Myristoleyl, 5 μM) was 418253 RLU, the “mean luminescent intensity (RLuc pDNA)” value (HepG2 cells [1]; Myristoleyl, 10 μM) was 85339 RLU and the “mean luminescent intensity (RLuc pDNA)” value (HepG2 cells [1]; Myristoleyl, 15 μM) was 23239 RLU. The “mean luminescent intensity (RLuc pDNA)” value (HepG2 cells [1]; Oleyl, 5 μM) was 116466 RLU, the “mean luminescent intensity (RLuc pDNA)” value (HepG2 cells [1]; Palmitoleyl, 5 μM) was 353987 RLU and the “mean luminescent intensity (RLuc pDNA)” value (HepG2 cells [1]; Palmitoleyl, 10 μM) was 97075 RLU. For the same substance, the “mean luminescent intensity (RLuc pDNA)” value (HepG2 cells [1]; Petroselinyl, 5 μM) was 168828 RLU.
